Series [1] concerns tumor microvessels. Description: Histopathological studies for direct antivascular effect. It is filed as in vivo, mouse. As to conditions: histopathology. An excerpt:
(§1) Thus, selenium inhibits proliferation of endothelial cells.

For series [2], the system named is Delta-like 4 ligand (DLL4). Description: Western blot of FaDu xenografts: DLL4. It counts as in vivo. As to conditions: selenium for 14 days. An excerpt:
(§2) MSC up-regulates Thrombospondin-1 (TSP-1) a potent inhibitor of angiogenesis and important controller of tumor growth and its receptor CD36 (FIG. 8A), HIF-1α expression (FIG. 8B) and relative intensity (FIG. 8C). To assess the effects of selenium on TVM, the expression of molecular markers associated with tumor hypoxia, drug resistance and increased proliferation, namely, hypoxia-inducible factor 1∝ (HIF-1∝), Cyclooxygenase-2 (Cox-2), inducible nitric oxide, propyl hydroxyl domain (PHD) and vascular endothelial growth factor (VEGF) were evaluated in xenograft tumors. Selenium was administered for 14 days. Western blot analysis was performed to determine the effect of MSC treatment on different antiangiogenic markers TSP-1, CD36, Delta-like 4 ligand (DLL4) and hypoxia inducible factor HIF-1α Data in FIG. 8A indicate that CD36 is up regulated in FaDu xenografts treated with MSC. Along with the CD36 MSC up regulates TSP-1, which is known to be involved in the inhibition of angiogenesis. Further, MSC down-regulates DLL4 in FaDu xenografts.

Series [3] deals with HNSCC xenograft FaDu. Description: Dose and schedule dependence of therapeutic synergy with irinotecan in FaDu xenograft. It counts as in vivo. From the text: A minimum 7 days pretreatment with MSC is required to achieve optimal therapeutic synergy with a representative anticancer drug—irinotecan. […] Daily pretreatment for 7-14 days was critical to achieve the selective effects of selenium. This reflects the time required for priming of tumor vasculature by MSC in order to see the therapeutic end results.

For series [4], the system named is Thrombospondin-1 (TSP-1). Description: Western blot of FaDu xenografts: TSP-1. The following applies: selenium for 14 days. It counts as in vivo.
Excerpt: as §2

Series [5] has as its system CD36. Description: Western blot of FaDu xenografts: CD36. As to conditions: selenium for 14 days. It counts as in vivo.
Excerpt: as §2
For orientation: Immunoblotting shows a protein as a band on a membrane.

Series [6] deals with FaDu xenografts. Description: DCE-MRI (albumin-GdDTPA) of tumor vascular permeability and volume in FaDu xenografts. It is filed as in vivo, mouse. Here is the method:
FaDu xenograft bearing mice were used. MSC was administered for 14 days. Mice were imaged using a 4.7-T/33-cm horizontal bore magnet (GE NMR Instruments, Fremont, Calif.) incorporating AVANCE digital electronics [Bruker Biospec, ParaVision 3.0.2 OS); Bruker Medical, Billerica, Mass.], a removable gradient coil insert (G060; Bruker Medical) generating a maximum field strength of 950 mT/m, and a custom-designed radiofrequency transreceiver coil. Animals were anesthetized before imaging with a ketamine/xylazine mixture (10:1) at a dose of […], secured in a mouse coil chamber, and positioned on a scanner. The animals were kept warm in the magnet using a circulating water bath maintained at 37 jC. […] T1 relaxation rates were determined using a saturation recovery, fast spin echo sequence with an effective echo time (TE) of 10 milliseconds, and a TR ranging from 360 to 6000 milliseconds [FOV=32×32 mm, slice thickness=1.0 mm, matrix size=128×96 pixels, number of excitations (NEX)=3]. […]
Image processing and analysis were carried out using commercially available software (ANALYZE PC, Version 5.0; Biomedical Imaging Resource, Mayo Foundation, Rochester, Minn.) (Matlab's curve-fitting toolbox, Matlab Version 7.0; Math Works, Inc., Natick, Mass.). […] Percent tumor enhancement (E) was then calculated from relative intensity (RI) […]

The test system of series [7] is matrigel plug containing cultured FaDu tumor cells. Description: Matrigel plug (s.c.) containing cultured FaDu tumor cells, microvessel count. It is filed as in vivo. As to conditions: 0.2 mg/mouse/day, after 1 week, 10^6 cells s.c., p<0.05.
Excerpt: as §1

Series [8] concerns HNSCC xenografts FaDu and A253. Description: Tumor vascular maturation index and mean vessel lumen area. It is filed as in vivo. As to conditions: vs untreated control tumors. An excerpt: FIG. 5A summarizes effect of MSC treatment on tumor vascular maturation index (VMI) and on the mean tumor vessel lumen area (FIG. 5B) in HNSCC xenografts FaDu and A253. […] Treatment with MSC makes the arrangement less chaotic and more ‘normalized’ in arrangement.

Series [9] concerns FaDu xenografts. Description: Hoechst 33342 / DiOC7 fluorescent dye uptake, functional tumor vasculature. It is filed as in vivo, mouse. The following applies: post 14 days MSC treatment. Here is the method: Initial studies on uptake of fluorescent dyes Hoechst 33342 (i.v at 15 mg/kg in sterile phosphate buffered saline) followed 20 minutes later with DiOC7 (i.v. at 1 mg/kg in dimethyl sulfoxide) in mice bearing A253 and FaDu xenografts are indicative of tumor vascular maturation by MSC. Uptake of both dyes is indicative of functional vasculature while uptake of only one dye is indicative of […] vasculature. […] Abnormal vasculature shut off when challenged with dyes similar to Hoechst 33342 while blood flow through ‘normalized’ vasculature is not affected.

Series [10] has as its system HIF-1α. Description: HIF-1α expression in hypoxic FaDu tumor cells in vitro. It counts as cell-based. As to conditions: 24 hr hypoxic conditions, preliminary results. An excerpt: To determine whether HIF-1α is a target for MSC, FaDu tumor cells were exposed in vitro for 24 hr to hypoxic conditions and analyzed for HIF-1α expression to FaDu cells. […] The data in FIG. 8C is graphic representation of the relative intensity of each marker.

Series [11] is described as follows: Tumor drug uptake by HPLC in FaDu xenografts. It counts as in vivo. As for the experimental part:
FIGS. 6A and 6B show the effect of 14 days pre-treatment with MSC prior to drug administration on tumor drug uptake (2 hours post i.v.) as determined by HPLC in FaDu xenografts for CPT-11 and doxorubicin respectively. […] The drug concentration in the normal tissues studied such as liver, plasma.

In series [12] the test system is endothelial cells in the angiogenic microvessels. Description: CD31/Tunnel double staining of angiogenic microvessels. It counts as in vivo, mouse.
Excerpt: as §1

In series [13] the test system is VEGF. Description: VEGF expression (WB) and secretion (ELISA) in FaDu tumor cells in vitro. It is filed as cell-based.
Excerpt: as §1
For orientation: An ELISA detects its analyte on a solid surface through an enzyme-linked reagent.

Series [14] has as its system FaDu tumors. Description: CD31/α-SMA double immunohistochemical staining of FaDu tumors. It counts as in vivo, mouse. As to conditions: day 14 of MSC treatment. An excerpt:
MSC treatment results in reduction of tumor vascular leakiness as reflected by the slope of the ΔR1 values in FaDu xenografts. This could be a result of tumor vascular maturation as determined by the double immunohistochemical staining for the pan endothelial cell adhesion molecule (PECAM; CD31) and α-SMA in control and MSC treated mice (Day 14 of MSC treatment).
This is in agreement with our estimates of MVD as MSC treatment does lead to a reduction in MVD. However, the decrease in permeability could be a result of the ‘maturation’ effect of MSC. To validate findings from the imaging studies, immunohistochemical staining for the pan endothelial cell adhesion molecule (PECAM; CD31) along with staining with alpha-smooth muscle actin was performed in control and MSC-treated mice (Day 14 after treatment).

In series [15] the test system is FaDu xenografts. Description: Intratumoral microvessel density (CD31 immunostaining) in FaDu xenografts. It is filed as in vivo. As to conditions: 0.2 mg/mouse/day, after 2 weeks, p<0.05.
Excerpt: Microvessels were counted based on endothelial cells immunostaining with CD31 Mab on paraffin sections, after zinc fixative (p<0.05 in each system).
The mark [16] stands for this setting: 14 days MSC pre-treatment, 2 hours post i.v., vs monotherapy.
The mark [17] stands for this setting: combination treatment with SN-38.

Entries after “also recorded” stand apart in the source; their conditions may differ.

Regarding `C[Se]C[C@H](N)C(=O)O` [MSC, methylselenocysteine], the “direct antivascular effect (microvessel necrosis, endothelial cell death, microthrombus formation)” value in series [1] was “did not show any signs of other direct antivascular effect”. Further, in series [2], the DLL4 expression result was “down-regulates”. Further, the “minimum pretreatment required for optimal therapeutic synergy with irinotecan” value in series [3] (daily MSC) is not below 7 days. Further, in series [3] (with irinotecan), the therapeutic effect result was “dose and schedule dependent”. The TSP-1 expression entry in series [4] was “up regulates”. The CD36 expression result in [5] is “up regulated”. For the same compound, in series [6] (14 days MSC treatment), the tumor vascular volume result is given as “statistically significant decrease”. In addition, the “tumor vascular permeability (leakiness; slope of ΔR1)” value in series [6] (14 days MSC vs volume matched control) was “reduction; also recorded: statistically significant decrease”. In series [7], the “microvessel density in matrigel plug containing FaDu tumor cells” value is on record as “decreases”. In addition, the “mean tumor vessel lumen area” value in series [8] (p<0.0001) is reported as “reduction”. In addition, the “tumor vascular maturation index (VMI)” value in [8] (p<0.05) is “significant increase”. The “vasculature with uptake of both dyes ('normalized' functional vasculature)” value in series [9] is given as “approximately 80%”. For the same compound, the HIF-1α expression entry in series [10] is “significant inhibition”. Besides, in series [11] (setting [16]), the “intratumoral drug concentration, CPT-11 (SN-38 per FIG. 6A)” value was “more than doubling” and the “intratumoral drug concentration, doxorubicin” value was “more than doubling”. Further, the “drug concentration in normal tissues” value in series [11] (liver, plasma, kidney, combination with MSC vs monotherapy) is given as “did not show a significant increase”. In addition, the “apoptotic endothelial cell nuclei in angiogenic microvessels” value in series [12] is “did not show apoptotic endothelial cell nuclei”. Moreover, in series [13] (setting [17]), the “VEGF expression (WB)” value is recorded as “down regulates” and the “VEGF secretion (ELISA)” value was “down regulates”. In series [13] (selenium alone), the VEGF secretion entry is recorded as “decreased”. Moreover, the “pericyte recruitment / α-SMA staining of tumor vasculature” value in series [14] is given as “Increased pericyte recruitment; also recorded: increased staining of α-SMA”. Further, in series [15], the “intratumoral microvessel density (MVD)” value is recorded as “decreases”.

Source of the values: patent publication US7744854B2, “Method for optimizing cancer therapy by monitoring maturation of tumor associated vasculature by selenium” (Health Research, Inc., priority 2006, dated 2010).
